Test results: patent US20260174744A1, “COMPOUNDS, COMPOSITIONS, AND METHODS OF TREATING RNA VIRAL INFECTIONS” (priority 2024, published 2026)

What was measured:
Huh-luc/neo-ET cells = test: XTT cell viability assay, Huh-luc/neo-ET; type: cell-based; conditions: 72 hours, read-out: HCV 1b - TC50
Protocol: (§1) Twenty-four hours after seeding the cells, the cell culture supernatant was removed from each well and replaced with 175 μL fresh complete medium minus G418. Test compounds were evaluated at a high-test concentration of 10 μM and five serial half-logarithmic dilutions in three biological replicates. In three biological replicates, Sofosbuvir was evaluated in parallel at a high-test concentration of 1 μM and five serial half-logarithmic dilutions. Compounds were first serially diluted in DMSO to 400× of each final in-well concentration. An intermediate 8× solution was prepared in a complete medium and then added to the cells in a volume of 25 μL per well. A complete medium containing an equal percentage of DMSO (v/v) was added to vehicle-treated control cells. The final DMSO concentration was 0.25% (v/v) for all samples. The cells were incubated for an additional 72 hours at 37° C./5% CO2, then HCV replication was measured by luciferase activity and cell viability was assessed in parallel using an XTT colorimetric assay.
(§2) Huh-luc/neo-ET cell viability was measured at 72 hours after treatment using the tetrazolium dye XTT (2,3-bis(2-methoxy-4-nitro-5-sulfophenyl)-5[(phenylamino)carbonyl]-2H-tetrazolium hydroxide). Mitochondrial enzymes of metabolically active cells metabolize XTT-tetrazolium to a soluble formazan product. XTT solution was prepared fresh at 1 mg/mL in DMEM. Phenazine methosulfate (PMS) solution was prepared at 0.15 mg/mL in PBS and stored in the dark at −20° C. An XTT/PMS stock was prepared immediately before use by adding 40 μL of PMS per ml of XTT solution. Fifty microliters (50 μL) XTT/PMS were added per well, and the cells were incubated for 4 hours at 37° C. The cell culture plates were then sealed with adhesive plate sealers and shaken gently or inverted several times to mix the soluble formazan product. The formazan product was measured spectrophotometrically by absorbance at 450/650 nm on a Vmax plate reader (Molecular Devices). The raw data in Softmax Pro 5.4.2 software was imported into Microsoft Excel for further analysis. Data are presented as absorbance values (450/650 nm) or the percentage of viable cells relative to vehicle-treated control (mean+1−standard deviation, n=3 biological replicates from one independent experiment).

MRC-5 cells = test: Toxicity XTT in MRC-5 (229E cytoprotection assay); conditions: read-out: CoV229E - TC50; MRC-5; XTT; 6 days
HCV 1b = test: microbe, parasite or virus in culture; type: cell-based; conditions: for HCV 1b - percent effect: @ 10 μM
[1] = XTT cell viability assay, Huh-luc/neo-ET; type: cell-based; conditions: human, Huh-luc/neo-ET cells, read-out: HCV 1b - TC50
Protocol: as §1, §2

CoV229E = test: Anti-Coronavirus 229E cytoprotection assay, MRC-5; type: cell-based; conditions: Human coronavirus 229E, MRC5, 6 days, XTT
[2] = test system: MCF7 wild-type cell lines; test: MCF7 growth inhibition assay (Cell Titre Glo 2.0); type: cell-based; conditions: Homo sapiens, 120 hours, read-out: MCF-7 IC50
Protocol: The growth inhibition properties of inhibitors on MCF7 wild-type cell lines were evaluated using the Cell Titre Glo 2.0 cell viability reagent. The assay utilized 384-well black clear bottom plates with 20 μl of MCF7 wild-type cell suspension mixed with reference/test compounds and 20 μl of Cell Titre Glo 2.0 reagent. Cells were seeded at a density of 1000 cells/well in DMEM High Glucose culture media+10% Fetal Bovine Serum (FBS). Staurosporine and Camptothecin served as positive controls for confirming cytotoxicity at a concentration of 30 μM, and vehicle control of 1% DMSO was used to standardize conditions across all test points. The assay and culture media both contained 1% DMSO. […] The incubation period for the assay was set at 120 hours, after which growth inhibition was assessed. Using a multi-mode reader, the assay readout was based on luminescence measured in Relative Light Units (RLUs). The viability luminescence signal was monitored continually from the same wells over an extended period, allowing for detailed analysis of cell viability. […]
Cells were maintained and seeded in 384 […] plates, maintaining 1000 cells/well. […] This was followed by the addition of CTG reagent as per the kit's instruction protocol for 30 minutes and RLU data to be recorded. Post plate read data to be analyzed using GraphPad Prism for software IC50 value generation. […]

[3] = Toxicity XTT in MRC-5 (229E cytoprotection assay); conditions: human
Norovirus Norwalk Virus = test: Norwalk virus CPE assay, HG23 (Method 6); type: cell-based
Description: The antiviral assays were cell line based and consisted in transfecting each of the viruses tested in a compatible cell line. Upon infection and after drug treatment, viral survival and cell toxicity were reported from the readout of three different assays: cytopathic effect (CPE), viral yield reduction (VYR), or immunofluorescence (IF). A breakdown of the results obtained can be found in Table 3 in which EC50 values have been converted to account for variations in FBS concentrations across assays.
Compounds were tested in an assay medium containing 2% fetal bovine serum (FBS). Test compounds were added to cells prior to infection with virus at a multiplicity of infection (MOI) sufficient to induce visible cytopathic effect (CPE). […] Additionally, the EC90 was defined as the concentration required to achieve a 1 log10 reduction in viral titer. Dose-response curves depicting viral CPE (red line) and compound cytotoxicity (purple line) were generated to support these analyses.

[4] = Protein binding in FBS, rapid equilibrium dialysis (RED); conditions: 10% FBS (text/footnote)

SMILES	CC50 (Huh-luc/neo-ET cells)	CC50 (MRC-5 cells)	other results
O=[N+]([O-])c1cccc2nc(-c3ccc(F)cc3)n(Cc3ccc(OCCN4CCCCC4)cc3)c12 [MCAA-12]	> 10 µM	> 5 µM	–
O=C(O)c1ccc(-c2c(CC3CCCC3)c3ccc(F)cc3n2Cc2ccc(OCCN3CCCCC3)cc2)cc1 [MCAA-02]	> 10 µM	> 5 µM	–
COc1ccc(-c2c(Cc3ccc(OCCN4CCCCC4)cc3)c3ccc(OC)cc3n2C)cc1 [MCAA-01]	–	–	EC50 (HCV 1b; Hepatitis C virus, Huh-luc/neo-ET replicon, 72 hours, luciferase): 3.61 µM; CC50 at 72 h [1]: > 10 µM; EC50 (CoV229E): 1.88 µM; IC50 [2]: > 10 µM; CC50 at 6 days [3]: > 5 µM
Fc1ccc(-c2cc3sccc3n2Cc2ccc(OCCC3CCCCC3)cc2)cc1 [MCAA-07]	> 10 µM	> 5 µM	HCV 1b - percent effect (HCV 1b): 30% @ 10 μM
O=[N+]([O-])c1cccc2nc(-c3ccc(F)cc3)n(Cc3ccc(OCCC4CCCCC4)cc3)c12 [MCAA-14]	> 10 µM	> 5 µM	HCV 1b - percent effect (HCV 1b): 34% @ 10 μM
CC(C)OC(=O)[C@H](C)N[P@](=O)(OC[C@H]1O[C@@H](n2ccc(=O)[nH]c2=O)[C@](C)(F)[C@@H]1O)Oc1ccccc1 [Sofosbuvir, reference compound]	> 1 µM	–	–
Nc1cccc2nc(-c3ccc(F)cc3)n(Cc3ccc(OCCN4CCCCC4)cc3)c12 [MCAA-08]	> 10 µM	> 5 µM	–
Nc1cccc2c1nc(-c1ccc(F)cc1)n2Cc1ccc(OCCN2CCCCC2)cc1 [MCAA-10]	> 10 µM	> 5 µM	–
CCC(CC)COC(=O)[C@H](C)N[P@](=O)(OC[C@H]1O[C@@](C#N)(c2ccc3c(N)ncnn23)[C@H](O)[C@@H]1O)Oc1ccccc1 [Remdesivir, reference compound]	–	> 1 µM	–
COc1ccc(-c2c(Cc3ccc(OCCC4CCCCC4)cc3)c3ccc(OC)cc3n2C)cc1 [MCAA-05]	> 10 µM	> 5 µM	–
O=C(O)c1ccc(-c2c(CC3CCCC3)c3ccc(F)cc3n2Cc2ccc(OCCC3CCCCC3)cc2)cc1 [MCAA-03]	> 10 µM	2.47 µM	–
Nc1cccc2c1nc(-c1ccc(F)cc1)n2Cc1ccc(OCCC2CCCCC2)cc1 [MCAA-11]	5.82 µM	> 5 µM	–
O=[N+]([O-])c1cccc2c1nc(-c1ccc(F)cc1)n2Cc1ccc(OCCC2CCCCC2)cc1 [MCAA-15]	> 10 µM	> 5 µM	HCV 1b - percent effect (HCV 1b): 38% @ 10 μM
O=[N+]([O-])c1cccc2c1nc(-c1ccc(F)cc1)n2Cc1ccc(OCCN2CCCCC2)cc1 [MCAA-13]	> 10 µM	> 5 µM	–
Cc1c(-c2ccc(O)cc2)n(Cc2ccc(OCCN3CCCCC3)cc2)c2ccc(O)cc12 [Pipendoxifene]	–	> 1 µM	percent effect printed in EC50 column (Norovirus Norwalk Virus; 2% FBS, @ 5 μM): 31% @; percent effect printed in Corrected EC50 column (Norovirus Norwalk Virus; @ 1.25 μM (concentration corrected for 2% FBS)): 31% @ 1.25; unbound fraction [4]: 5%
Cc1c(-c2ccc(O)cc2)n(Cc2ccc(OCCC3CCCCC3)cc2)c2ccc(O)cc12 [MCAA-04]	> 10 µM	2.7 µM	–
Nc1cccc2nc(-c3ccc(F)cc3)n(Cc3ccc(OCCC4CCCCC4)cc3)c12 [MCAA-09]	> 10 µM	> 5 µM	–
Fc1ccc(-c2cc3sccc3n2Cc2ccc(OCCN3CCCCC3)cc2)cc1 [MCAA-06]	> 10 µM	1.53 µM	–
